Experimental data published in US8563742B2, “Substituted aminothiazole derivatives, pharmaceutical compositions, and methods of use” (High Point Pharmaceuticals, LLC, priority 2008, dated 2013).
Like-named read-outs stand apart in the source and are kept apart here.

Experiments:
[1] = Stability in Liver Microsomes (monkey); type: in vitro ADME; settings: 1 μM, 0.5 mg protein/mL, NADPH, 60 minutes, 37° C., pH 7.4
Description: (§1) Various compounds were tested for their stability in human, monkey, dog, rat, and mouse liver microsomes. At a final concentration of 1 μM, compounds were incubated with either human, monkey, dog, rat, or mouse liver microsomes (0.5 mg protein/mL) in the presence of an NADPH-solution for 60 minutes at 37° C., pH 7.4 in phosphate buffer. Incubations were performed in duplicate. Reactions were terminated by the addition of methanol. The incubation solution was vortexed and transferred into a 96-well plate. The plate was sealed and centrifuged at approximately 3500 rpm for approximately 10 minutes. After centrifugation, the plate was loaded into 96-well plate autosampler and analyzed by LC/MS. Values are reported as percent of compound remaining after 1 hour.

[2] = Stability in Liver Microsomes (rat); type: in vitro ADME; settings: 1 μM, 0.5 mg protein/mL, NADPH, 60 minutes, 37° C., pH 7.4
Description: as §1

[3] = Stability in Liver Microsomes (dog); type: in vitro ADME; settings: 1 μM, 0.5 mg protein/mL, NADPH, 60 minutes, 37° C., pH 7.4
Description: as §1

[4] = Stability in Liver Microsomes (mouse); type: in vitro ADME; settings: 1 μM, 0.5 mg protein/mL, NADPH, 60 minutes, 37° C., pH 7.4
Description: as §1

[5] = Stability in Liver Microsomes (human); type: in vitro ADME; settings: 1 μM, 0.5 mg protein/mL, NADPH, 60 minutes, 37° C., pH 7.4
Description: as §1

[6] = molecular target: T1, human MC-4R (Homo sapiens, UniProt P32245); assay: Biological Assay: inhibition of AgRP functional interaction with MC-4R in presence of αMSH (cAMP production); type: cell-based; settings: HEK293 cells expressing human MC-4R, AgRP83-132 and αMSH present
T1 construct: expressed in transfected cells
Description: The following method is illustrative of techniques that may be employed to measure the ability of the compounds of Formula (I) to functionally modulate the binding of AgRP to melanocortin receptors. In particular, the assay below measures the ability of compounds of Formula (I) or pharmaceutically acceptable salts thereof to functionally modulate the binding of AgRP to MC-4R in the presence of a MC-4R agonist, such as alpha-MSH.
HEK293 cells stably expressing human MC-4R receptors were grown in high glucose Dulbecco's Modified Eagle Medium (DMEM) with 4500 mg glucose/L, L-glutamine, NaHCO3, pyrdoxin HCl, 10 mM HEPES (pH 7.4), 0.1 mM NEAA (non-essential amino acid medium) (GIBCO Cat#11140-050), 10% fetal bovine serum and 700 μg/mL G418. Cells were grown in T-225 flasks at 37° C. with CO2 and humidity control.
On the day of assay, cells were washed twice with phosphate buffered saline without calcium and magnesium (PBS) and incubated with 10 mL PBS until the cells were detached from the flask. The detached cells were centrifuged at 240 g for 5 min. The cell pellet was re-suspended in assay buffer (Earle's balanced salt solution (Sigma E3024) supplemented with 10 mM HEPES, pH 7.4, 0.5 mM IBMX and protease inhibitor cocktail (Roche, 1 complete tablet/75 mL buffer)).
The inhibitory or enhancement effect of compounds on AgRP activity was measured in a multi-component assay containing testing compounds, AgRP83-132 (human, Phoenix Pharma, cat no. 003-53), cells expressing MC-4R, and αMSH (Bachem, cat no. H-1075). Test compounds, AgRP and αMSH were diluted with assay buffer. Test compounds and AgRP were mixed to 4 times of the final concentration and incubated at room temperature for 30 min. Five μL of testing compound/AgRP solution followed with 10 μL of cells (20,000 cells/well) were added to each well of a 384-well reaction plate before 5 μL of αMSH was added. Cells were stimulated with αMSH for an additional 30 min at 37° C.
Stimulation of cells was stopped by adding a lysis buffer and cells were lysed. The intracellular concentration of cAMP may be measured by various techniques known to one of skill in the art including, but not limited to, fluorescence polarization (FP) and time-resolved fluorescence (TRF).
The inhibition was shown by an increase in MC-4R mediated cAMP production.

[7] = Pharmacokinetic screening in rats (plasma and brain); settings: rat, 5 mg/kg PO; for concentration at 2 h: male, Sprague Dawley, po, 5 mg/kg, 2 hour time point; for Brain - 24 hours AUC (h * ng/g): 24 hour study
Description: Pharmacokinetic screening in rats was performed on various compounds to measure brain to plasma ratio at 2 hour time point. […] The parameters for the pharmacokinetic protocol were as follows.
Amount of compound: 5 mg/kg
Species: Rat; Strain: Sprague Dawley; Sex: Male
Diet Status: Overnight fasting
Number of Animals (n) for each time point: 2
Formulation: 0.1% CMC, 0.25% Tween 80 in distilled water
Each formulation was administered once by oral gavage using a gavage needle (18G-3, BrainTree Scientific, INC, USA) attached to a syringe. The dose volume was 5 mL/kg for all animals. The actual volume administered to each animal was calculated and adjusted based on the most recent body weight.
Blood samples (approximately 300 μL whole blood) was collected from each animal via tail vein except for terminal blood samples. Terminal blood samples were collected via cardiac puncture. All samples were collected into tubes containing lithium heparin (Multivette 600 LH-Gel, Sarstedt, Newton, N.C., USA). Following collection, the tubes were placed in refrigerator (maximum 30 minutes) or until centrifugation under refrigeration (at 2 to 8° C.) at 5000 g for 7 minutes. Each harvested plasma sample was then transferred into 1.2 mL polypropylene tubes, on the 96-Well Plate according to the 96-Well Plate plasma sample map and kept in freezer. Plasma samples were then analyzed for test substances.
Brain samples were collected immediately after the rats were euthanised at designated time points. Brain samples were rinsed with saline, blotted dry, and weighed. Brain samples were placed into individual containers and kept in freezer (−20° C.). Brain samples were then analyzed for test articles.
After analysis, all the plasma results were reported as ng/mL and brain sample results are reported as ng/g.

[8] = read-out: Average EC50 (nM) in Biological Assay
[9] = plasma, Plasma - 2 hours (ng/mL)

T1 sequence (P32245 whole entry): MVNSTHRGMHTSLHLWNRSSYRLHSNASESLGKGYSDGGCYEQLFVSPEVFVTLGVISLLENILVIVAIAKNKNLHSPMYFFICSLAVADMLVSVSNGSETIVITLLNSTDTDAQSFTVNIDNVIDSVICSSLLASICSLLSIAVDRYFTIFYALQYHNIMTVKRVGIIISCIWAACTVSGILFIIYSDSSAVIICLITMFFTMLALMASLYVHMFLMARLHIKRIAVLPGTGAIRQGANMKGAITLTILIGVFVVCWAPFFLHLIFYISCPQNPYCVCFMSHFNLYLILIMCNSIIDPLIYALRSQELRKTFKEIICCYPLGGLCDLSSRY

Structure (SMILES): Cc1ccc(CN(CCC(=O)[O-])c2nc(C3CCC(C4CCCCC4)CC3)cs2)s1.[Na+] (stereo not shown) [Example 60, Sodium; 3-[(4-bicyclohexyl-4-yl-thiazol-2-yl)-(5-methyl-thiophen-2-ylmethyl)-amino]-propionate]
- Stability in Liver Microsomes (% remaining after 1 hour incubation) Monkey [1]: 83%
- Stability in Liver Microsomes (% remaining after 1 hour incubation) Rat [2]: 86%
- Stability in Liver Microsomes (% remaining after 1 hour incubation) Dog [3]: 99%
- Stability in Liver Microsomes (% remaining after 1 hour incubation) Mouse [4]: 87%
- Stability in Liver Microsomes (% remaining after 1 hour incubation) Human [5]: 92%
- EC50 [6, 8]: 191 nM

Structure (SMILES): Cc1ccc(CN(CCC(=O)O)c2nc(C3CCC(F)(F)CC3)cs2)s1 [Example 23, Sodium; 3-[[4-(4,4-difluoro-cyclohexyl)-thiazol-2-yl]-(5-methyl-thiophen-2-ylmethyl)-amino]-propionate]
- Stability in Liver Microsomes (% remaining after 1 hour incubation) Monkey [1]: 56%
- Stability in Liver Microsomes (% remaining after 1 hour incubation) Rat [2]: 15%
- Stability in Liver Microsomes (% remaining after 1 hour incubation) Dog [3]: 94%
- Stability in Liver Microsomes (% remaining after 1 hour incubation) Mouse [4]: 60%
- Stability in Liver Microsomes (% remaining after 1 hour incubation) Human [5]: 71%
- EC50 [6, 8]: 366 nM

Structure (SMILES): CCCC1CCC(c2csc(N(CCC(=O)O)Cc3ccc(C)s3)n2)CC1 (stereo not shown) [Example 21, 3-{(5-Methyl-thiophen-2-ylmethyl)-[4-(4-propyl-cyclohexyl)-thiazol-2-yl]-amino}-propionic acid]
- Stability in Liver Microsomes (% remaining after 1 hour incubation) Monkey [1]: 47%
- Stability in Liver Microsomes (% remaining after 1 hour incubation) Rat [2]: 66%
- Stability in Liver Microsomes (% remaining after 1 hour incubation) Dog [3]: 78%
- Stability in Liver Microsomes (% remaining after 1 hour incubation) Mouse [4]: 86%
- Stability in Liver Microsomes (% remaining after 1 hour incubation) Human [5]: 84%
- EC50 [6, 8]: 372 nM

Structure (SMILES): Cc1cc(CN(CCC(=O)O)c2nc(C3CCC(C(C)C)CC3)cs2)c(C)s1 (stereo not shown) [Example 26, 3-{(2,5-Dimethyl-thiophen-3-ylmethyl)-[4-(4-isopropyl-cyclohexyl)-thiazol-2-yl]-amino}-propionic acid]
- Stability in Liver Microsomes (% remaining after 1 hour incubation) Monkey [1]: 67%
- Stability in Liver Microsomes (% remaining after 1 hour incubation) Rat [2]: 66%
- Stability in Liver Microsomes (% remaining after 1 hour incubation) Dog [3]: 72%
- Stability in Liver Microsomes (% remaining after 1 hour incubation) Mouse [4]: 71%
- Stability in Liver Microsomes (% remaining after 1 hour incubation) Human [5]: 79%
- EC50 ([6]; Average EC50 (nM) in Biological Assay): 276 nM
- concentration at 2 h ([7]; brain, Brain - 2 hours (ng/g)): 942 ng/g
- concentration at 2 h [7, 9]: 6260 ng/mL
- Brain - 24 hours AUC (h * ng/g) [7]: +++ (values between 20,000 and 10,000 h*ng/g)

Structure (SMILES): Cc1ccc(CN(CCC(=O)O)c2nc(C3CCC(C)(C)CC3)cs2)s1 [Example 55, 3-[[4-(4,4-Dimethyl-cyclohexyl)-thiazol-2-yl]-(5-methyl-thiophen-2-ylmethyl)-amino]-propionic acid]
- Stability in Liver Microsomes (% remaining after 1 hour incubation) Monkey [1]: 78%
- Stability in Liver Microsomes (% remaining after 1 hour incubation) Rat [2]: 64%
- Stability in Liver Microsomes (% remaining after 1 hour incubation) Dog [3]: 80%
- Stability in Liver Microsomes (% remaining after 1 hour incubation) Mouse [4]: 68%
- Stability in Liver Microsomes (% remaining after 1 hour incubation) Human [5]: 49%
- EC50 [6, 8]: 70 nM

Structure (SMILES): COC1CCC(c2csc(N(CCC(=O)O)Cc3ccc(C)s3)n2)CC1 (stereo not shown) [Example 31, 3-[[4-(4-Methoxy-cyclohexyl)-thiazol-2-yl]-(5-methyl-thiophen-2-ylmethyl)-amino]-propionic acid]
- Stability in Liver Microsomes (% remaining after 1 hour incubation) Monkey [1]: 88%
- Stability in Liver Microsomes (% remaining after 1 hour incubation) Rat [2]: 83%
- Stability in Liver Microsomes (% remaining after 1 hour incubation) Dog [3]: 94%
- Stability in Liver Microsomes (% remaining after 1 hour incubation) Mouse [4]: 91%
- Stability in Liver Microsomes (% remaining after 1 hour incubation) Human [5]: 83%
- EC50 [6, 8]: 1570 nM

Structure (SMILES): Cc1ccc(CN(CCC(=O)[O-])c2nc(C3CCC(c4ccc(F)cc4)CC3)cs2)s1.[Na+] (stereo not shown) [Example 61, Sodium; 3-[{4-[4-(4-fluoro-phenyl)-cyclohexyl]-thiazol-2-yl}-(5-methyl-thiophen-2-ylmethyl)-amino]-propionate]
- Stability in Liver Microsomes (% remaining after 1 hour incubation) Monkey [1]: 13%
- Stability in Liver Microsomes (% remaining after 1 hour incubation) Rat [2]: 40%
- Stability in Liver Microsomes (% remaining after 1 hour incubation) Dog [3]: 84%
- Stability in Liver Microsomes (% remaining after 1 hour incubation) Mouse [4]: 74%
- Stability in Liver Microsomes (% remaining after 1 hour incubation) Human [5]: 68%
- EC50 [6, 8]: 246 nM

Structure (SMILES): Cc1cc(CN(CCC(=O)[O-])c2nc(C3CCC(c4ccccc4)CC3)cs2)c(C)s1.[Na+] (stereo not shown) [Example 40, Sodium; 3-{(2,5-dimethyl-thiophen-3-ylmethyl)-[4-(4-phenyl-cyclohexyl)-thiazol-2-yl]-amino}-propionate]
- Stability in Liver Microsomes (% remaining after 1 hour incubation) Monkey [1]: 85%
- Stability in Liver Microsomes (% remaining after 1 hour incubation) Rat [2]: 67%
- Stability in Liver Microsomes (% remaining after 1 hour incubation) Dog [3]: 36%
- Stability in Liver Microsomes (% remaining after 1 hour incubation) Mouse [4]: 90%
- Stability in Liver Microsomes (% remaining after 1 hour incubation) Human [5]: 61%
- EC50 [6, 8]: 219 nM

Structure (SMILES): Cc1cc(CN(CCC(=O)O)c2nc(C3CCC(C(C)(C)C)CC3)cs2)c(C)s1 (stereo not shown) [Example 25, 3-[[4-(4-tert-Butyl-cyclohexyl)-thiazol-2-yl]-(2,5-dimethyl-thiophen-3-ylmethyl)-amino]-propionic acid]
- Stability in Liver Microsomes (% remaining after 1 hour incubation) Monkey [1]: 77%
- Stability in Liver Microsomes (% remaining after 1 hour incubation) Rat [2]: 69%
- Stability in Liver Microsomes (% remaining after 1 hour incubation) Dog [3]: 69%
- Stability in Liver Microsomes (% remaining after 1 hour incubation) Mouse [4]: 81%
- Stability in Liver Microsomes (% remaining after 1 hour incubation) Human [5]: 99%
- EC50 [6, 8]: 80 nM
- concentration at 2 h ([7]; brain, Brain - 2 hours (ng/g)): 552 ng/g
- concentration at 2 h [7, 9]: 10500 ng/mL
- Brain - 24 hours AUC (h * ng/g) [7]: +++ (values between 20,000 and 10,000 h*ng/g)

Structure (SMILES): CC(C)c1ccc(-c2csc(N(CCC(=O)[O-])Cc3cccs3)n2)cc1.[Na+] [Reference Compound A, Sodium 3-{[4-(4-isopropyl-phenyl)-thiazol-2-yl]-thiophen-2-ylmethyl-amino}-propionate, reference compound]
- Stability in Liver Microsomes (% remaining after 1 hour incubation) Monkey [1]: 2%
- Stability in Liver Microsomes (% remaining after 1 hour incubation) Rat [2]: 54%
- Stability in Liver Microsomes (% remaining after 1 hour incubation) Dog [3]: 2%
- Stability in Liver Microsomes (% remaining after 1 hour incubation) Mouse [4]: 52%
- Stability in Liver Microsomes (% remaining after 1 hour incubation) Human [5]: 40%
- concentration at 2 h ([7]; brain, Brain - 2 hours (ng/g)): 1140 ng/g
- concentration at 2 h [7, 9]: 3850 ng/mL
- Brain - 24 hours AUC (h * ng/g) [7]: + (values less than 5,000 h*ng/g)

Structure (SMILES): Cc1ccc(CN(CCC(=O)O)c2nc([C@H]3CC[C@H](c4ccccc4)CC3)cs2)s1 [Example 38, Sodium; 3-{(5-methyl-thiophen-2-ylmethyl)-[4-(trans-4-phenyl-cyclohexyl)-thiazol-2-yl]-amino}-propionate]
- Stability in Liver Microsomes (% remaining after 1 hour incubation) Monkey [1]: 70%
- Stability in Liver Microsomes (% remaining after 1 hour incubation) Rat [2]: 90%
- Stability in Liver Microsomes (% remaining after 1 hour incubation) Dog [3]: 93%
- Stability in Liver Microsomes (% remaining after 1 hour incubation) Mouse [4]: 99%
- Stability in Liver Microsomes (% remaining after 1 hour incubation) Human [5]: 71%
- EC50 [6, 8]: 145 nM
- concentration at 2 h [7, 9]: 8400 ng/mL
- Brain - 24 hours AUC (h * ng/g) [7]: ++++ (values above 20,000 h*ng/g)
